We go through 17 molecules from patent US20090281133A1, “Heterocyclic antiviral compounds” (Roche Palo Alto LLC, priority 2008, published 2009).

B1: RANTES: CC chemokine, naturally occurring chemokine that can stimulate the CCR5 receptor (protein, UniProt P13501 24-91, looked up)
C-C motif chemokine 5: SPYSSDTTPCCFAYIARPLPRAHIKEYFYTSGKCSNPAVVFVTRKNRQVCANPEKKWVREYINSLEMS

The test system of one data set is HIV.
Test: not given
The following applies: cited from earlier work.
For the molecule B1, the “block of HIV entry into the cells” value is “block HIV entry into the cells”.

System in another data set: not given
Test: not given
Conditions: not given
By melting point is commonly meant the temperature, or range, at which the solid turns liquid. Turning to `CCCCC1CN(CC2CCOCC2)C(=O)CC12CCN(C1(C)CCN(C(=O)c3c(C)ncnc3C)CC1)CC2` (centres unmarked) [I-4], the melting point was in the range of 92.8 to 100.1 °C.

A further data set relates to collagen induced arthritis.
Test: not given
The following applies: collagen-induced arthritis model; cited from earlier work.
With `Cc1ccc(-c2ccc3c(c2)C=C(C(=O)Nc2ccc(C[N+](C)(C)C4CCOCC4)cc2)CCC3)cc1.[Cl-]` [TAK-779], the “incidence and severity of arthritis” value is “reduce both the incidence and severity of arthritis”; the “infiltration of inflammatory CCR5+ T-cells into the joint” value was “inhibited”.

Another data set deals with CCR5-mediated fusion of Hela-R5 cells with CEM-NKr-CCR5-Luc cells. Put plainly: CCR5-mediated cell-cell fusion (CCF) assay. Format: cell-based. Particulars: luciferase readout, 24 hrs co-culture. The procedure:
CCF assay was performed as described before (C. Ji, J. Zhang, N. Cammack and S. Sankuratri, J. Biomol. Screen. 2006 11(6):652-663). Hela-R5 cells (express gp160 from R5-tropic virus and HIV-1 Tat) were plated in 384 well white culture plates (BD Bioscience, Palo Alto, Calif.) at 7.5×10^3 cells per well in phenol red-free Dulbecco's Modified Eagle Medium (DMEM) supplemented with 10% FBS, 1× Pen-Strep, 300 μg/mL G418, 100 μg/mL hygromycin, and 1 μg/mL Doxycycline (Dox) (BD Bioscience, Palo Alto, Calif.), using Multimek (Beckman, Fullerton, Calif.) and incubated at 37° C. overnight to induce the expression of gp160. Ten μL diluted compounds in medium containing 5% DMSO were added to the cells, followed by the addition of CEM-NKr-CCR5-Luc (obtained from NIH AIDS Research & Reference Reagents Program) that expresses CD4 and CCR5 and carries a HIV-2 long terminal repeat (LTR)-driven luciferase reporter gene at 1.5×10^4 cells/15 μL/well and incubated for 24 hrs. At the end of co-culture, 15 μL of Steady-Glo luciferase substrate was added into each well, and the cultures were sealed and gently shaken for 45 min. The luciferase activity were measured for 10 sec per well as luminescence by using 16-channel TopCount NXT (PerkinElmer, Shelton, Conn.) with 10 min dark adaptation and the readout is count per second (CPS). […]
Broadly, the IC50 is the point on the concentration scale where inhibition reaches its midpoint. Regarding `CCCCC1CN(C[C@H]2CC[C@H](OCC)CC2)C(=O)CC12CCN(C1(C)CCN(C(=O)c3c(C)ncnc3C)CC1)CC2` (mixture of isomers) [I-1, 5-Butyl-9-[1-(4,6-dimethyl-pyrimidine-5-carbonyl)-4-methyl-piperidin-4-yl]-3-(4-ethoxy-cyclohexylmethyl)-3,9-diaza-spiro[5.5]undecan-2-one], the IC50 is less than 2.5 nM.

The target in another data set is T1, Human CCR5 receptor (Homo sapiens, UniProt P51681).
T1 construct: expressed in transfected cells
T1 sequence (P51681 whole entry): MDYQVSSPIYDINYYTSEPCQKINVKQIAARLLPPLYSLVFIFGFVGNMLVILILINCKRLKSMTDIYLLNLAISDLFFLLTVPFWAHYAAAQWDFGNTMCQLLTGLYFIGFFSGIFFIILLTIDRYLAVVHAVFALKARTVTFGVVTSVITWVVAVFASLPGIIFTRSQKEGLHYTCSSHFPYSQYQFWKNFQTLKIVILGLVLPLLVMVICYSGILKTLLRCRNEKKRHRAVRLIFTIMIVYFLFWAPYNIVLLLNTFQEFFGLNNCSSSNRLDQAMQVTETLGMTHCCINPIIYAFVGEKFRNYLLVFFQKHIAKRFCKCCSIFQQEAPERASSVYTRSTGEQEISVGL
Put plainly: Human CCR5 receptor-ligand binding assay. Particulars: CHO-Gα16-hCCR5 cells, 125I RANTES binding. From the text:
Human CCR5 Receptor-Ligand Binding Assay Protocol
Human CCR5 receptor (Genebank ID: 29169292) was cloned into mammalian expression vector, pTarget (Promega). The construct was transfected into CHO-Gα16 cells by using Fugene Reagent (Roche). Clones were selected under antibiotic pressure (G418 and Hygromycin) and sorted 4 times with a fluorescence activates cell sorter and a monoclonal antibody specific for CCR5 receptor (BD Biosciences Pharmigen, Mab 2D7, Cat. No. 555993). The clone with highest expression (100,000 copies per cell) was chosen for the binding assays.
Adherent cells in […] tissue culture flask (˜90% confluent) were harvested using 1 mM EDTA in PBS (phosphate-buffered saline) without Ca^2+ and Mg^2+. Cells were washed twice with PBS containing no Ca^2+ and Mg^2+. CHO-Gα16-hCCR5 cells were then resuspended (1×10^6/mL) in ice cold binding buffer (50 mM HEPES, 1 mM CaCl2, 5 mM MgCl2, 0.5% BSA, 0.05% NaN3, pH 7.24), pH 7.4), supplemented with freshly made 0.5% BSA and 0.05% NaN3.
Eighty μl CHO-Gα16-hCCR5 (1×10^6/mL) cells were added to 96 well plates. All dilutions were made in binding buffer (50 mM HEPES, 1 mM CaCl2, 5 mM MgCl2, 0.5% BSA, 0.05% NaN3, pH 7.24).
The plates were incubated on a cell shaker at RT for 2 h with a final concentration of 0.1 nM ^125I RANTES or ^125I MIP-1α or ^125I MIP-1β. The compound dilutions were made in PBS, 1% BSA. Total reaction volume was 100 μl per well. The test compounds were added to the cells prior to the addition of radioligand.
After incubation, the cells were harvested onto GF/C filter plates using Packard cell harvester. Filters were pretreated with 0.3% PEI/0.2% BSA for 30 min. The filter plate was washed rapidly 5 times with 25 mM HEPES, 500 mM NaCl, 1 mM CaCl2 and 5 mM MgCl2 adjusted to pH 7.1. Plates were dried in oven (70° C.) for 20 min, added with 40 μl scintillation fluid and sealed with Packard TopSeal-A. Packard Top Count was used to measure of the radioactivity for 1 min per well.
Total binding was determined with control wells added with radioisotope and buffer and the non-specific binding was determined using an excess cold RANTES to some of the control wells. Specific binding was determined by subtracting the non-specific form total binding. Results are expressed as the percentage of specific ^125I RANTES binding. IC50 values were determined using varying concentrations of the test ligand in triplicates and the data was analyzed using GraphPad Prism (GraphPad, San Diego, Calif.).
Regarding `CCCCC1CN(C[C@H]2CC[C@H](OCC)CC2)C(=O)CC12CCN(C1(C)CCN(C(=O)c3c(C)ncnc3C)CC1)CC2` (mixture of isomers) [I-1, 5-Butyl-9-[1-(4,6-dimethyl-pyrimidine-5-carbonyl)-4-methyl-piperidin-4-yl]-3-(4-ethoxy-cyclohexylmethyl)-3,9-diaza-spiro[5.5]undecan-2-one], the IC50 was determined as 30.4 nM.

`CCCCC1CN(CC2CCOCC2)C(=O)CC12CCN(C1(C)CCN(C(=O)c3c(C)cc(C#N)nc3C)CC1)CC2` (centres unmarked) [I-13] registered a half-inhibitory concentration (IC50) of 19.7 nM. This IC50 lies about 1.5-fold lower than the previous one.

As for `CCCCC1CN(CC2CCC(OCC)CC2)C(=O)CC12CCN(C1(C)CCN(C(=O)c3c(C)ncnc3C)CC1)CC2` (single isomer, unassigned) [I-2], the IC50 amounted to 26.8 nM.

As for `CCCCC1CN(CC2CCN(C(C)=O)CC2)C(=O)CC12CCN(C1(C)CCN(C(=O)c3c(C)ncnc3C)CC1)CC2` (centres unmarked) [I-7], the IC50 stood at 51.7 nM.

`CCCCC1CN(C[C@@H]2CCOC2)C(=O)CC12CCN(C1(C)CCN(C(=O)c3c(C)ccnc3C)CC1)CC2` (some centres unmarked) [I-10] registered an IC50 of 24.9 nM.

Regarding `CCCCC1CN(C[C@H]2CC[C@@H](OCC)CC2)C(=O)CC12CCN(C1(C)CCN(C(=O)c3c(C)ncnc3C)CC1)CC2` (some centres unmarked) [I-9], the IC50 turned out to be 32 nM. The IC50 values of the last two molecules are within 1.5-fold of each other.

`CCCCC1CN(CC2CCN(S(C)(=O)=O)CC2)C(=O)CC12CCN(C1(C)CCN(C(=O)c3c(C)ncnc3C)CC1)CC2` (centres unmarked) [I-6] registered an IC50 of 16.9 nM.

For the molecule `CCCCC1CN(C[C@H]2CC[C@H](OC)CC2)C(=O)CC12CCN(C1(C)CCN(C(=O)c3c(C)ncnc3C)CC1)CC2` (some centres unmarked) [I-5], the IC50 amounted to 20.8 nM.

Molecule `CCCCC1CN(CC2CCC(O)CC2)C(=O)CC12CCN(C1(C)CCN(C(=O)c3c(C)ccnc3C)CC1)CC2` (centres unmarked) [I-15, 5-Butyl-9-[1-(2,4-dimethyl-pyridine-3-carbonyl)-4-methyl-piperidin-4-yl]-3-(4-hydroxy-cyclohexylmethyl)-3,9-diaza-spiro[5.5]undecan-2-one] yielded an IC50 of 30.5 nM.

For `CCCCC1CN(CC2CCN(C(=O)OC)CC2)C(=O)CC12CCN(C1(C)CCN(C(=O)c3c(C)ncnc3C)CC1)CC2` (centres unmarked) [I-8, 4-{1-Butyl-9-[1-(4,6-dimethyl-pyrimidine-5-carbonyl)-4-methyl-piperidin-4-yl]-4-oxo-3,9-diaza-spiro[5.5]undec-3-ylmethyl}-piperidine-1-carboxylic acid methyl ester], the IC50 turned out to be 24.4 nM.

`CCCCC1CN(CC2CCOCC2)C(=O)CC12CCN(C1(C)CCN(C(=O)c3c(C)ccnc3C)CC1)CC2` (centres unmarked) [I-12] had an IC50 of 13.7 nM.

The molecule `CCCCC1CN(CC2CCCCO2)C(=O)CC12CCN(C1(C)CCN(C(=O)c3c(C)ncnc3C)CC1)CC2` (centres unmarked) [I-11] gave an IC50 of 24.6 nM.

Molecule `CCCCC1CN(C[C@H]2CCOC2)C(=O)CC12CCN(C1(C)CCN(C(=O)c3c(C)ccnc3C)CC1)CC2` (stereo partly drawn) [I-14, 5-Butyl-9-[1-(2,4-dimethyl-pyridine-3-carbonyl)-4-methyl-piperidin-4-yl]-3-[(R)-1-(tetrahydro-furan-3-yl)methyl]-3,9-diaza-spiro[5.5]undecan-2-one] yielded an IC50 of 17.7 nM.

For the molecule `CCCCC1CN(CC2CCOCC2)C(=O)CC12CCN(C1(C)CCN(C(=O)c3c(C)ncnc3C)CC1)CC2` (centres unmarked) [I-4], the 50% inhibitory concentration (IC50) is 17.2 nM.

Turning to `CCCCC1CN(CC2CCC(OCC)CC2)C(=O)CC12CCN(C1(C)CCN(C(=O)c3c(C)ncnc3C)CC1)CC2` (single isomer, unassigned) [I-3], the IC50 was 32.9 nM. This IC50 is about 1.9-fold higher than that of the molecule before.
